Experiments:
[1] = tested on: GERD patients; conditions: cited from earlier work
[2] = tested on: parietal cell; conditions: meal-induced gastric acid secretion; cited from earlier work
[3] = tested on: pH of the stomach contents; test: pH of the stomach contents of treated pigs; type: in vivo
From the text: FIG. 1 illustrates experimental data concerning the percentage of time that the gastric contents remain above pH 3 in different groups of pigs treated with ranitidine (4 animals), omeprazole (5 animals) and hG17(1-9) (4 animals), as compared to six (6) control animals.
FIG. 2 illustrates the percentage of time that the gastric contents remain above pH 4 in a group of untreated (control) pigs […] and groups of pigs treated with human gastrin 17(1-9)Ser9-Diphtheria […] (4 animals), ranitidine (4 animals) and omeprazole (5 animals) as described in FIG. 1.
FIG. 3 depicts the baseline median pH of the gastric contents of a group of six (6) untreated (control) pigs and groups of four (4) pigs treated with human G17(1-9)Ser9-Diphtheria Toxoid, […] pigs with ranitidine and five (5) pigs with omeprazole as described in FIG. 1.
In the following Examples, the anti G17 immunogenic composition, 150 mg ranitidine and 60 mg omeprazole were administered to pigs and the resulting changes in the pH of the stomach contents before and after treatment were measured. Specifically, following the stomach pH measurements of the untreated control state of each pig, the stomach pH of the same pigs was measured after the animals were treated with either ranitidine, or composition of human gastrin 17(1-9)-h(G 17)ser9-Diphtheria Toxoid (Gastrimmune), or omeprazole administered individually and at different times in each of four animals (pigs).

[4] = biological target: gastrin-17 (Homo sapiens, UniProt P01350); test: Serum anti-gastrin antibody response of Gastrimmune-immunized mice (ELISA); type: in vivo
From the text: Gastrin neutralization was achieved by using the immunological composition Gastrimmune which is composed of the amino terminal domain of gastrin-17 linked, via an amino acid or peptide spacer to diphtheria toxoid which acts as the immunogenic carrier.
Serum antibody titers rose within 2 weeks of the initial immunization to levels with an antigen binding capacity of >10^−9M. The presence of anti-gastrin antibodies within the serum of Gastrimmune-immunized mice was confirmed by using an ELISA. As expected, no bound gastrin levels were detected in animals immunized with control immunogen.

[5] = 400-800 mg cimetidine and 150-300 mg ranitidine twice daily

CN/C(=N/CCSCc1nc[nH]c1C)NC#N [cimetidine]
patients with healing of esophagitis, endoscopically determined (mean) [1, 5]: 48%
patients with symptomatic relief of GERD (mean) [1, 5]: 61%
efficacy in GERD patients at doses and durations proven effective in healing peptic ulcers ([1]; GERD patients, peptic ulcer doses and durations): not effective in GERD

Cc1c(OCC(F)(F)F)ccnc1C[S+]([O-])c1nc2ccccc2[nH]1 (stereo not drawn) [lansoprazole]
effectiveness in alleviating the symptoms of GERD esophagitis compared with histamine H2 blockers ([1]; human, in vivo): more effective than histamine H2 blockers

heptadecagastrin [Peptide G17]
potency as stimulator of gastric acid secretion relative to histamine [2]: 1500 times

human gastrin 17(1-9)-h(G 17)ser9-Diphtheria Toxoid [Gastrimmune]
inhibition of acid output from the stomach [3]: inhibited stomach acid output at a level of effectiveness between ranitidine and omeprazole
time that the gastric contents remain above pH 3 ([3]; FIG. 1, 150 mg ranitidine, 60 mg omeprazole): for a longer period of time than in the pigs treated with ranitidine
time that the gastric contents remain above pH 4 ([3]; FIG. 2, 150 mg ranitidine, 60 mg omeprazole): for a longer period of time than in the pigs treated with ranitidine
median pH of the stomach contents ([3]; FIG. 3): higher than ranitidine treated pigs
presence of anti-gastrin antibodies within the serum (ELISA) ([4]; Gastrimmune-immunized mice): confirmed
cross-reactivity of the antibodies raised ([4]; mouse, in vivo): cross-reacted with both amidated and glycine-extended gastrin-17
antigen binding capacity of serum antibody titers ([4]; within 2 weeks of the initial immunization): > 10^−9 M
